The record followed here is publication PMC11255104 (Food Chemistry: X, 2024).

The data set can be described thus: Pharmacokinetic study in rats after oral administration of MOL extract. It counts as in vivo, Sprague-Dawley rats.
The mark [1] stands for this setting: male, Sprague-Dawley, rat, plasma, po, 30 g/kg.

Broadly, the half-life is the time needed for the level to fall by half in the phase considered. Lower therefore signals rapid decline. In turn, `O=C(/C=C/c1ccc(O)c(O)c1)O[C@@H]1C[C@](O)(C(=O)O)C[C@@H](O)[C@H]1O` [Chlorogenic acid] gave a half-life under setting [1] of 5.06 h.

In general, Cmax refers to the maximum level reached in the sampled fluid or tissue. A word on the Tmax: it is the time at which the peak concentration occurs. For `O=c1c(O[C@@H]2O[C@H](CO)[C@@H](O)[C@H](O)[C@H]2O)c(-c2ccc(O)c(O)c2)oc2cc(O)cc(O)c12` [Isoquercitrin], under setting [1], the Cmax was found to be 643 ng/mL and the Tmax was 0.24 h. In addition, for the setting “rat plasma, oral MOL extract 30 g/kg”, the “time over which the substance could be detected in plasma” value is at most 12 h.
